By inhibition is commonly meant the share of the control response that was lost under treatment. By IC50 is commonly meant the concentration needed to halve the response being measured.

From patent US6583180B2, “Glucocorticoid receptor modulators” (Abbott Laboratories, priority 2001, dated 2003) come the findings set out here.

The structures appear in SMILES notation. Where only a bound is given, the exact number is not on record here.

Test [1] concerns the target T1, Human glucocorticoid receptors (Homo sapiens, UniProt P04150).
T1 construct: made in house; host or cells: Sf9 insect cells, recombinant baculovirus (BAC-TO-BAC)
T1 sequence (P04150 1-777): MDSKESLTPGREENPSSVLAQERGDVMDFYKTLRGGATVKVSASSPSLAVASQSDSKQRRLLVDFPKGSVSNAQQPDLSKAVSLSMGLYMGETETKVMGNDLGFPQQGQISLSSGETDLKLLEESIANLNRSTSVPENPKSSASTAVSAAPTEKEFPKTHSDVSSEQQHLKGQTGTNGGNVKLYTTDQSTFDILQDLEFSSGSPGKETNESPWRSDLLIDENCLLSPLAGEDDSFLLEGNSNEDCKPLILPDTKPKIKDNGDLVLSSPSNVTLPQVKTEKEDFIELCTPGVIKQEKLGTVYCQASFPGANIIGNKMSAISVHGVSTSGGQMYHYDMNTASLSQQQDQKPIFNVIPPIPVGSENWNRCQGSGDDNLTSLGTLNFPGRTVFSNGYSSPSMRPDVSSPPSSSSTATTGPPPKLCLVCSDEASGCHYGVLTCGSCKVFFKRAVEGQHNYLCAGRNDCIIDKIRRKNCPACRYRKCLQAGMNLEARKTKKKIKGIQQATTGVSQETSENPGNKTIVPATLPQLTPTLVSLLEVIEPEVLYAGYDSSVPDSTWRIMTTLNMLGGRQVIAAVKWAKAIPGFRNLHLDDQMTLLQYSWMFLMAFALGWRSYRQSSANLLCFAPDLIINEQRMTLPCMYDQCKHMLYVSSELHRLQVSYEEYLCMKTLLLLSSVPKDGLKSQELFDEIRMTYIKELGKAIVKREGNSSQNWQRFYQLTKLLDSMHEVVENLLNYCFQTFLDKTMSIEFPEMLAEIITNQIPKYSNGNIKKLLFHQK
As to the kind of experiment: Radioligand filter binding assay, displacement of 3[H]-dexamethasone from hGR. Conditions: read-out: GR Binding (% Inhibition at 1.7 μM). Put shortly: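 Recombinant hGR extract from baculovirus-infected Sf9 cells (final ~1 nM receptor) incubated with ³H-dexamethasone and test compound dilutions in duplicate, EDTA/phosphate pH 8 buffer with MTG, overnight (15-20 h) at +4° C. Bound label collected on PEI-treated GF/B filters and scintillation-counted; IC50 from four-parameter fit of corrected cpm.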

For test [2], the target named is T2, progesterone receptor (PR) (Homo sapiens, UniProt P06401).
T2 sequence (P06401 1-933): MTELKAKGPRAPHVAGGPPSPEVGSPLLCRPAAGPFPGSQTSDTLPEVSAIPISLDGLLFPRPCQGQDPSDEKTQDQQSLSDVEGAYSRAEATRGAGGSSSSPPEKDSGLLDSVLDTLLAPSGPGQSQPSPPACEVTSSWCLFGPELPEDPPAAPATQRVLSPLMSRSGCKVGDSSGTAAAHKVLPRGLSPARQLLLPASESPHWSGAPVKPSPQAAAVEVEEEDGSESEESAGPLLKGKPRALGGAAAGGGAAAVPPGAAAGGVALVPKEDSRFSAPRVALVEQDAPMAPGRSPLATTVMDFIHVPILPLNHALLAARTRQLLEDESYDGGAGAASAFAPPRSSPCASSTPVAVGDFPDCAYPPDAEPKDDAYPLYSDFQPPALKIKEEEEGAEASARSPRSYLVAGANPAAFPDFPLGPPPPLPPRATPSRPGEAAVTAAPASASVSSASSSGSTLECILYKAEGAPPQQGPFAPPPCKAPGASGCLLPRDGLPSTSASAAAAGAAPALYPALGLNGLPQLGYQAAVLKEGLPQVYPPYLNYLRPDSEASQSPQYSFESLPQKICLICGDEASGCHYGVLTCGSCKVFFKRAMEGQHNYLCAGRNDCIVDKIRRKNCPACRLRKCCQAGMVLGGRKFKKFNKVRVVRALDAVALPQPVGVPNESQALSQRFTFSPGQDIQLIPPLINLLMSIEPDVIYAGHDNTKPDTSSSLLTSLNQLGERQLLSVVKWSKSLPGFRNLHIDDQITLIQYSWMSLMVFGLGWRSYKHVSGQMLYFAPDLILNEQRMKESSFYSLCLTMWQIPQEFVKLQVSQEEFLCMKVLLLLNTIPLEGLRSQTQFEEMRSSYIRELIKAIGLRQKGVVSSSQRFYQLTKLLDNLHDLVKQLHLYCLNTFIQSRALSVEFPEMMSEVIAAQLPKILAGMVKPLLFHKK
As to the kind of experiment: Radioligand binding assay for progesterone receptor (similar protocol).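 Also: radioligand binding measured with cytosol preparations containing the human progesterone receptor.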
From the text: Methods for Radiolipand Binding Studies with Human Glucocorticoid and Progesterone Receptor Cytosol

Consider `Cc1c(NS(C)(=O)=O)cccc1N(Cc1ccccc1Br)Cc1ccccc1Br` [Example 1, N-{3-[bis(2-bromobenzyl)amino]-2-methylphenyl}methanesulfonamide], for which the inhibition at 1.7 µM in test [1] was determined as 88.1%. For the same molecule, in test [2], the IC50 was found to be 600 nM.

As for `C=CCOc1ccc(CN(Cc2ccc(F)cc2F)c2cccc(NS(C)(=O)=O)c2C)cc1` [Example 20, N-{3-[[4-(allyloxy)benzyl](2,4-difluorobenzyl)amino]-2-methylphenyl}methanesulfonamide], the inhibition at 1.7 µM in test [1] was found to be 84.2%. The IC50 in test [2] was found to be 430 nM.

Turning to `Cc1c(NS(C)(=O)=O)cccc1N(Cc1ccccc1F)Cc1ccc(F)cc1F` [Example 23, N-{3-[(2,4-difluorobenzyl)(2-fluorobenzyl)amino]-2-methylphenyl}methanesulfonamide], the inhibition at 1.7 µM in test [1] turned out to be 92%. Besides, the concentration for half-maximal inhibition (IC50) in test [2] turned out to be 920 nM.

With `Cc1c(NS(C)(=O)=O)cccc1N(Cc1ccc(F)cc1F)Cc1ccccc1C#N` [Example 25, N-{3-[(2-cyanobenzyl)(2,4-difluorobenzyl)amino]-2-methylphenyl}methanesulfonamide], the inhibition at 1.7 µM in test [1] came to 87.5%. This molecule also came in with an IC50 in test [2] of 1790 nM.

Consider `Cc1c(NS(C)(=O)=O)cccc1N(Cc1ccc(OCC=Cc2ccccc2)cc1)Cc1ccc(F)cc1F` [Example 33, N-{3-[(2,4-difluorobenzyl)(4-{[3-phenyl-2-propenyl]oxy}benzyl)amino]-2-methylphenyl}methanesulfonamide], for which the inhibition at 1.7 µM in test [1] was 92.7%. For the same molecule, in test [2], the concentration for half-maximal inhibition (IC50) was greater than 10000 nM.

Take `Cc1c(NS(C)(=O)=O)cccc1N(Cc1ccc(OCc2ccccc2)cc1)Cc1ccc(F)cc1F` [Example 34, N-{3-[[4-(benzyloxy)benzyl](2,4-difluorobenzyl)amino]-2-methylphenyl}methanesulfonamide]: the inhibition at 1.7 µM in test [1] stood at 90%. Besides, in test [2], the IC50 is greater than 10000 nM.

`COc1ccc(NS(C)(=O)=O)cc1N(Cc1ccccc1Br)Cc1ccccc1Br` [Example 36, N-{3-[bis(2-bromobenzyl)amino]-4-methoxyphenyl}methanesulfonamide]: the inhibition at 1.7 µM in test [1] is 85.5%. In test [2], this molecule had an IC50 of 1200 nM.

As for `CCOC(=O)/C=C/c1c(NS(C)(=O)=O)cccc1N(Cc1ccccc1)Cc1ccccc1` [Example 40, N-[3-(dibenzylamino)-2-((E)-3-ethoxy-3-oxo-1-propenyl)phenyl]methanesulfonamide], in test [1], the inhibition at 1.7 µM came out at 87%. Further, the IC50 in test [2] is greater than 10000 nM.

Consider `CCCOc1ccc(CN(Cc2ccc(F)cc2F)c2cccc(NS(C)(=O)=O)c2C)cc1` [Example 43, N-{3-[(2,4-difluorobenzyl)(4-propoxybenzyl)amino]-2-methylphenyl}methanesulfonamide], for which the inhibition at 1.7 µM in test [1] came out at 91.1%. The half-maximal inhibitory concentration (IC50) in test [2] came out at 660 nM.

Turning to `COCCOc1cc(Oc2ccc(CN(Cc3ccccc3)c3cccc(NS(C)(=O)=O)c3C)cc2)ccc1CCCC(=O)O` [Example 63], the inhibition at 1.7 µM in test [1] amounted to 96.2%. The molecule also came in with an IC50 in test [2] of 648 nM.

Regarding `CCOC(=O)CCCc1ccc(Oc2ccc(CN(Cc3ccccc3)c3cccc(NS(C)(=O)=O)c3C)cc2)cc1` [Example 64, ethyl 4-(4-{4-[(benzyl{2-methyl-3-[(methylsulfonyl)amino]phenyl}amino)methyl]phenoxy}phenyl)butanoate], the inhibition at 1.7 µM in test [1] was determined as 93.5%. The molecule also had an IC50 in test [2] of 1180 nM.

In the case of `Cc1c(NS(C)(=O)=O)cccc1N(Cc1ccccc1)Cc1ccc(Oc2cccc(CCCO)c2)cc1` [Example 65, N-[3-(benzyl{4-[3-(3-hydroxypropyl)phenoxy]benzyl}amino)-2-methylphenyl]methanesulfonamide], in test [1], the inhibition at 1.7 µM was 94%. In test [2], this molecule returned a concentration for half-maximal inhibition (IC50) of 633 nM.

Take `COC(=O)c1cccc(Oc2ccc(CN(Cc3ccc(F)cc3F)c3cccc(NS(C)(=O)=O)c3C)cc2)c1` [Example 67, methyl 3-{4-[((2,4-difluorobenzyl){2-methyl-3-[(methylsulfonyl)amino]phenyl}amino)methyl]phenoxy}benzoate]: the inhibition at 1.7 µM in test [1] was determined as 89%. In test [2], this molecule displayed an IC50 of 667 nM.

In the case of `COCCOCCOc1cccc(Oc2ccc(CN(Cc3ccccc3)c3cccc(NS(C)(=O)=O)c3C)cc2)c1` [Example 69, N-{3-[benzyl(4-{3-[2-(2-methoxyethoxy)ethoxy]phenoxy}benzyl)amino]-2-methylphenyl}methanesulfonamide], in test [1], the inhibition at 1.7 µM was found to be 86.9%. This molecule also displayed an IC50 in test [2] of 122 nM.

`Cc1c(NS(C)(=O)=O)cccc1N(Cc1ccccc1)Cc1ccc(Oc2cccc(OCCCNS(C)(=O)=O)c2)cc1` [Example 71, N-[3-(3-{4-[(benzyl{2-methyl-3-[(methylsulfonyl)amino]phenyl}amino)methyl]phenoxy}phenoxy)propyl]methanesulfonamid]: the inhibition at 1.7 µM in test [1] came to 95.2%. In test [2], this molecule had an IC50 of 537 nM.

Take `Cc1c(NS(C)(=O)=O)cccc1N(Cc1ccccc1)Cc1ccc(Oc2cccc(OCCCN(C)C)c2)cc1` [Example 72, N-{3-[benzyl(4-{3-[3-(dimethylamino)propoxy]phenoxy}benzyl)amino]-2-methylphenyl}methanesulfonamide]: in test [1], the inhibition at 1.7 µM was found to be 92%. The same molecule returned an IC50 in test [2] of 462 nM.

For the molecule `Cc1c(NS(C)(=O)=O)cccc1N(Cc1ccc(Oc2ccc(CCCC(=O)NCCCN3CCCC3=O)cc2)cc1)Cc1ccc(F)cc1F` [Example 75, 4-(4-{4-[((2,4-difluorobenzyl){2-methyl-3-[(methylsulfonyl)amino]phenyl}amino)methyl]phenoxy}phenyl)-N-[3-(2-oxopyrrolidin-1-yl)propyl]butanamide], in test [1], the inhibition at 1.7 µM amounted to 98.3%. Moreover, the IC50 in test [2] amounted to 2350 nM.

For the molecule `Cc1c(NS(C)(=O)=O)cccc1N(Cc1ccc(Oc2ccc(CCC(=O)O)cc2)cc1)Cc1ccccc1Br` [Example 76, 3-(4-{4-[((2-bromobenzyl){2-methyl-3-[(methylsulfonyl)amino]phenyl}amino)methyl]phenoxy}phenyl)propanoic acid], the inhibition at 1.7 µM in test [1] was found to be 96.5%. For the same molecule, the IC50 in test [2] was 149 nM.

`Cc1c(NS(C)(=O)=O)cccc1N(Cc1ccccc1)Cc1ccc(Oc2ccc(Br)c(OCC(=O)O)c2)cc1` [Example 77, (5-{4-[(benzyl{2-methyl-3-[(methylsulfonyl)amino]phenyl}amino)methyl]phenoxy}-2-bromophenoxy)acetic acid]: the inhibition at 1.7 µM in test [1] was determined as 97.1%. The same molecule yielded an IC50 in test [2] of 249 nM.

For `Cc1c(NS(C)(=O)=O)cccc1N(Cc1ccccc1)Cc1ccc(Oc2cccc(OCCNC(=O)CCC(=O)O)c2)cc1` [Example 78, 4-{[2-(3-{4-[(benzyl{2-methyl-3-[(methylsulfonyl)amino]phenyl}amino)methyl]phenoxy}phenoxy)ethyl]amino}-4-oxobutanoic acid], the inhibition at 1.7 µM in test [1] stood at 97.3%. In test [2], the 50% inhibitory concentration (IC50) is greater than 1000 nM.

Consider `Cc1c(NS(C)(=O)=O)cccc1N(Cc1ccccc1)Cc1ccc(Oc2cccc(OCCNC(=O)CCCC(=O)O)c2)cc1` [Example 79, 5-{[2-(3-{4-[(benzyl{2-methyl-3-[(methylsulfonyl)amino]phenyl}amino)methyl]phenoxy}phenoxy)ethyl]amino}-5-oxopentanoic acid], for which the inhibition at 1.7 µM in test [1] was found to be 97.2%. The molecule also displayed an IC50 in test [2] of 1100 nM.
